Reference: patent publication US6849598B1, “Therapeutic compositions comprising bactericidal/permeability-increasing (BPI) protein products” (XOMA, priority 1995, dated 2005)
≈ marks a conversion by molar mass, not a printed value. Read-outs that look alike come from different tables or passages of the source.

Assays:
S. pneumoniae = experiment: Antibiotic susceptibility (MIC, Sensititre Trays) with rBPI21 poloxamer formulations; format: cell-based; conditions: for MIC: Streptococcus pneumoniae, read-out: Minimum Inhibitory Concentration
Experimental: The effect of therapeutic compositions of rBPI21 formulated with poloxamer, with or without EDTA, was evaluated on the antibiotic susceptibility of the multiple drug resistant A. baumannii, S. pneumoniae, E. faecium and P. aeruginosa organisms of Example 5. Therapeutic compositions were prepared containing 2 mg/mL rBPI21, (5 mM sodium citrate, 150 mM NaCl) with a 0.2% (w/v) concentration of PLURONIC F68, P103, P104, P105 or P123. The effect on the antibiotic susceptibility of the organisms was determined in Mueller-Hinton Broth plus Cations (CSMHB, Remel), or 40% pooled human serum in CSMHB (Sigma, St. Louis, Mo.), as follows.
Isolated colonies of the organism from overnight cultures were suspended in Microscan® Inoculum Water to a concentration equivalent to a 0.5 McFarland Standard (approximately 1×10^8 CFU/ml), determined using a Microscan® turbidimeter. Aliquots were transferred to either CSMHB or 40% pooled human serum in CSMHB. Each tube contained either a final concentration of 16 μg/mL rBPI21 or an equivalent volume of control buffer. Minimal inhibitory concentrations (MIC) for each antibiotic tested, i.e. the lowest concentration of antibiotic which inhibits visible growth, were determined using gram-negative (MB and MC) and gram-positive (MA) Sensititre Trays (Radiometer America, Westlake, Ohio), which allow for the rapid and simultaneous survey of a broad spectrum of standard antibiotics. Any other antimicrobial panel systems known in the art, such as the Microscan® (Dade Microscan, Sacramento, Calif.), Pasco (DIFCO, Detroit, Mich.) and Alamar (Alamar, Sacramento, Calif.) systems, may alternatively be used to assay for antibiotic susceptibility.
Tables 12-15 below display a summary of the results of the antibiotic screening panels, reported for each strain tested as the MIC of the tested antibiotics in the presence of the indicated rBPI21 therapeutic composition. The antibiotic susceptibility standards (interpretation of an MIC as clinically resistant (R), intermediate (I) or susceptible (S) according to NCCLS standards) applicable to the organism tested appear in superscript next to the MIC.

[1] = tested on: gram-positive organisms (Staphylococcus aureus, Staphylococcus epideimidis, Streptococcus faecalis, Bacillus subtilis, Micrococcus Iysodeikticus, Listeria …); conditions: BPI at 10^−6 M or 160 μg/ml; pH of either 7.0 or 5.5; cited from earlier work
[2] = tested on: human, rabbit and sheep red blood cells and several human tumor cell lines; conditions: BPI at 10^−6 M; cited from earlier work
[3] = tested on: Candida albicans and Candida parapsilosis; conditions: BPI at 10^−6 M; pH 7.0 or 5.5; cited from earlier work
gram-negative bacteria = conditions: broad range of gram-negative bacteria; Elsbach and Weiss (1992); cited from earlier work
[4] = CSMHB, 16 μg/mL rBPI21 with F68
[5] = CSMHB, 16 μg/mL rBPI21 with P103
[6] = CSMHB, 16 μg/mL rBPI21 with P104
[7] = CSMHB, 16 μg/mL rBPI21 with P105
[8] = CSMHB, 16 μg/mL rBPI21 with P123
[9] = Serum, 16 μg/mL rBPI21 with F68
[10] = Serum, 16 μg/mL rBPI21 with P103
[11] = Serum, 16 μg/mL rBPI21 with P104
[12] = Serum, 16 μg/mL rBPI21 with P105
[13] = Serum, 16 μg/mL rBPI21 with P123

In the case of Cc1onc(-c2ccccc2)c1C(=O)N[C@@H]1C(=O)N2[C@@H]1SC(C)(C)[C@@H]2C(=O)O [Oxacillin], the “susceptibility interpretation of MIC (superscript)” value (“susceptibility interpretation” for short) (S. pneumoniae; [4]) is reported as “R”, the “susceptibility interpretation” value (S. pneumoniae; [5]) is reported as “S” and the “susceptibility interpretation” value (S. pneumoniae; [6]) is reported as “S”. For the same molecule, the “susceptibility interpretation” value (S. pneumoniae; [7]) was “S”, the “susceptibility interpretation” value (S. pneumoniae; [8]) was “S” and the “susceptibility interpretation” value (S. pneumoniae; CSMHB, Control (no BPI)) was “R”. For the same molecule, the “susceptibility interpretation” value (S. pneumoniae; [9]) was “R”, the “susceptibility interpretation” value (S. pneumoniae; [10]) was “R” and the “susceptibility interpretation” value (S. pneumoniae; [11]) was “R”. The “susceptibility interpretation” value (S. pneumoniae; [12]) was “R”, the “susceptibility interpretation” value (S. pneumoniae; [13]) was “R” and the “susceptibility interpretation” value (S. pneumoniae; Serum, Control (no BPI)) was “R”. The MIC (S. pneumoniae; [4]) was 32 µg/mL (≈ 79.7 µM), the MIC (S. pneumoniae; [5]) was < 0.25 µg/mL and the MIC (S. pneumoniae; [6]) was 0.5 µg/mL (≈ 1.25 µM). The MIC (S. pneumoniae; [7]) was 1 µg/mL (≈ 2.49 µM), the MIC (S. pneumoniae; [8]) was 0.5 µg/mL (≈ 1.25 µM) and the MIC (S. pneumoniae; CSMHB, Control (no BPI)) was 32 µg/mL (≈ 79.7 µM). For the same molecule, the MIC (S. pneumoniae; [9]) was > 32 µg/mL, the MIC (S. pneumoniae; [10]) was 32 µg/mL (≈ 79.7 µM) and the MIC (S. pneumoniae; [11]) was 32 µg/mL (≈ 79.7 µM). It also gave an MIC (S. pneumoniae; [12]) of 32 µg/mL (≈ 79.7 µM), an MIC (S. pneumoniae; [13]) of 32 µg/mL (≈ 79.7 µM) and an MIC (S. pneumoniae; Serum, Control (no BPI)) of 32 µg/mL (≈ 79.7 µM).

B1: BPI: bactericidal/permeability-increasing protein isolated from granules of mammalian polymorphonuclear leukocytes (protein, UniProt P17213 32-487, looked up)
Bactericidal …: VNPGVVVRISQKGLDYASQQGTAALQKELKRIKIPDYSDSFKIKHLGKGHYSFYSMDIREFQLPSSQISMVPNVGLKFSISNANIKISGKWKAQKRFLKMSGNFDLSIEGMSISADLKLGSNPTSGKPTITCSSCSSHINSVHVHISKSKVGWLIQLFHKKIESALRNKMNSQVCEKVTNSVSSELQPYFQTLPVMTKIDSVAGINYGLVAPPATTAETLDVQMKGEFYSENHHNPPPFAPPVMEFPAAHDRMVYLGLSDYFFNTAGLVYQEAGVLKMTLRDDMIPKESKFRLTTKFFGTFLPEVAKKFPNMKIQIHVSASTPPHLSVQPTGLTFYPAVDVQAFAVLPNSSLASLFLIGMHTTGSMEVSAESNRLVGELKLDRLLLELKHSNIGPFPVELLQDIMNYIVPILVLPRVNEKLQKGFPLPTPARVQLYNVVLQPHQNFLLFGADVVYK
For B1, the “toxic effect on gram-positive organisms” value [1] is listed as “no toxic effect”, the “toxicity to higher eukaryotic cells” value [2] is listed as “non-toxic” and the “toxic effect on fungi” value [3] is listed as “no toxic effect”. For the same molecule, the “concentrations at which BPI exhibits anti-bacterial activity (as low as)” value (gram-negative bacteria) was 10^−8 to 10^−9 M.
